According to paper PMC8142146 (Bioorganic chemistry, 2020):
Where two headings read alike, the source gives them in different places.

Experiments:
PARP1 [1] = molecular target: T1, PARP1 (Homo sapiens, UniProt P09874); settings: read-out: PARP1 IC50, literature value; cited from earlier work
PARP1 [2] = molecular target: T1, PARP1; assay: in vitro PARP1 enzyme assay; settings: for inhibition at 5 µM: read-out: PARP1 inhibition at 5 μM; for fold improvement in PARP1 activity compared to lead 4: vs unsubstituted lead 4 (IC50 = 5.8 μM)
PARP1 [3] = molecular target: T1, PARP1; assay: BPS PARP1 Chemiluminescent Activity Assay Kit; type: biochemical

T1 sequence (P09874 whole entry): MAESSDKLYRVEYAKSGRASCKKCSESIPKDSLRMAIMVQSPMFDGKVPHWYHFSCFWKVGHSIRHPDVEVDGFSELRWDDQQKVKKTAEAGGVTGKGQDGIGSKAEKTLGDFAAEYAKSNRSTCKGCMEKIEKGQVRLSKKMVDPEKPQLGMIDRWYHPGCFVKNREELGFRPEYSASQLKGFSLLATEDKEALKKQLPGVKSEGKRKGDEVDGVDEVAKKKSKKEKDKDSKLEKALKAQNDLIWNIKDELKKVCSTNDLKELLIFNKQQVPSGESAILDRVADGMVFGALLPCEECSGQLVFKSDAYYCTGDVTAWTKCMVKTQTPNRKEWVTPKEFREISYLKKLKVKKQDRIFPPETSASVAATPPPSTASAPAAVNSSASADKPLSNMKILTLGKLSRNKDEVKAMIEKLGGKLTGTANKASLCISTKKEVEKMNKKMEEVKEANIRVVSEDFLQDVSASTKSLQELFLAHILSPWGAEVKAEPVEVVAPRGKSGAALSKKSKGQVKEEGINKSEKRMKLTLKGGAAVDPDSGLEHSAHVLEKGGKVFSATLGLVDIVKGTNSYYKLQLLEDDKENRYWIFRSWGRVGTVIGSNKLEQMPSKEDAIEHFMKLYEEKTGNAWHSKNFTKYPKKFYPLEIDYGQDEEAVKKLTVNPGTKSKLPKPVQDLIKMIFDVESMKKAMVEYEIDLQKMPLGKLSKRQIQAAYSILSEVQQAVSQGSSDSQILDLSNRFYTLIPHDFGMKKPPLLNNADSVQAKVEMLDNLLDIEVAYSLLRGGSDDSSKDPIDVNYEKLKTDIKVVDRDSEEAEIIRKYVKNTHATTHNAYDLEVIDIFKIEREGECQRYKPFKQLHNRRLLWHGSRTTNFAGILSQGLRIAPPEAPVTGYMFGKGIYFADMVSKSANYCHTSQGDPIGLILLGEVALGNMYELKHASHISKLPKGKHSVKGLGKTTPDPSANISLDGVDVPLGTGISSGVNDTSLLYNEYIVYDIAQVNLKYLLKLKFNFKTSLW

| inhibition at 5 µM (PARP1 [2]) [%] | SMILES | further results |
| --- | --- | --- |
| < 20 | CN1CCN(C[C@@H]2COc3c(cccc3C(N)=O)O2)CC1 [Compound 27a, (R)-2-((4-Methylpiperazin-1-yl)methyl)-2,3-dihydrobenzo[b][1,4]dioxine-5-carboxamide] | – |
| < 20 | NC(=O)c1cccc2c1O[C@@H](CN1CCN(c3ncccn3)CC1)CO2 [Compound 28b, (S)-3-((4-(Pyrimidin-2-yl)piperazin-1-yl)methyl)-2,3-dihydrobenzo[b][1,4]dioxine-5-carboxamide] | – |
| < 20 | CN1CCN(C[C@H]2COc3cccc(C(N)=O)c3O2)CC1 [Compound 27b, (S)-3-((4-Methylpiperazin-1-yl)methyl)-2,3-dihydrobenzo[b][1,4]dioxine-5-carboxamide] | – |
| < 20 | NC(=O)c1cccc2c1OC[C@@H](CN1CCN(c3ncccn3)CC1)O2 [Compound 28a, (R)-2-((4-(Pyrimidin-2-yl)piperazin-1-yl)methyl)-2,3-dihydrobenzo[b][1,4]dioxine-5-carboxamide] | – |

The remaining lines, values behind:

| SMILES | inhibition at 5 µM (PARP1 [2]) [%] | further results |
| --- | --- | --- |
| NC(=O)c1cccc2c1OCO2 [Compound 31, Benzo[d][1,3]dioxole-4-carboxamide] | – | IC50 (PARP1 [1]): 5300 nM |
| NC(=O)c1cccc2c1OC[C@H](CN1CCN(c3ncccn3)CC1)O2 [Compound 23a, (S)-2-((4-(Pyrimidin-2-yl)piperazin-1-yl)methyl)-2,3-dihydrobenzo[b][1,4]dioxine-5-carboxamide] | < 20 | – |
| NC(=O)c1cccc2c1OCCN2 [Compound 44, 3,4-Dihydro-2H-benzo[b][1,4]oxazine-8-carboxamide] | – | fold less potent than 4 (PARP1) (PARP1 [2]; vs 4): ~ 2 fold |
| CS(=O)(=O)OC[C@@H]1COc2cccc(C(N)=O)c2O1 [Compound 21b, (S)-(8-Carbamoyl-2,3-dihydrobenzo[b][1,4]dioxin-2-yl)methyl methanesulfonate] | – | fold improved PARP1 activity over 25a (PARP1 [2]; vs hydroxymethyl precursor 25a): ~ 10 fold; fold improvement in PARP1 activity compared to lead 4 (PARP1 [2]): ~ 8 fold |
| CN1CCN(C[C@H]2COc3c(cccc3C(N)=O)O2)CC1 [Compound 22a, (S)-2-((4-Methylpiperazin-1-yl)methyl)-2,3-dihydrobenzo[b][1,4]dioxine-5-carboxamide] | < 20 | – |
| NC(=O)c1cccc2c1O[C@H](CN1CCN(c3ncccn3)CC1)CO2 [Compound 23b, (R)-3-((4-(Pyrimidin-2-yl)piperazin-1-yl)methyl)-2,3-dihydrobenzo[b][1,4]dioxine-5-carboxamide] | < 20 | – |
| NC(=O)c1cccc2c1O/C(=C\c1ccc(C(=O)O)cc1)C(=O)N2 [Compound 50, (Z)-2-(4-Carboxybenzylidene)-3-oxo-3,4-dihydro-2H-benzo[b][1,4]oxazine-8-carboxamide] | – | IC50 (PARP1 [3]): 420 ± 46 nM |
| CN1CCN(C[C@@H]2COc3cccc(C(N)=O)c3O2)CC1 [Compound 22b, (R)-3-((4-Methylpiperazin-1-yl)methyl)-2,3-dihydrobenzo[b][1,4]dioxine-5-carboxamide] | < 20 | – |
| NC(=O)c1cccc2c1OCCCO2 [Compound 32, 3,4-Dihydro-2H-benzo[b][1,4]dioxepine-6-carboxamide] | – | inhibition at 2.5 µM (PARP1 [2]; read-out: PARP1 inhibition at 2.5 μM): 15% |
| CS(=O)(=O)OC[C@H]1COc2cccc(C(N)=O)c2O1 [Compound 26b, (R)-(8-Carbamoyl-2,3-dihydrobenzo[b][1,4]dioxin-2-yl)methyl methanesulfonate] | – | fold improvement in PARP1 activity compared to lead 4 (PARP1 [2]): ~ 5 fold |
| NC(=O)c1cccc2c1OCC(=O)N2 [Compound 45, 3-Oxo-3,4-dihydro-2H-benzo[b][1,4]oxazine-8-carboxamide] | – | fold enhanced PARP1 activity in comparison to 44 (PARP1 [2]; vs 44): 15 fold |
